The source of these data is US12281122B1, “PI3K inhibitors” (Cogent Biosciences, Inc., priority 2023, dated 2025).

In assay [1] the test system is T47D (PI3Kα-H1047R) cell line. As to the kind of experiment: HTRF phospho-AKT(S473) cell assay in T47D cells. The assay is classed as cell-based, human. Conditions: Homo sapiens, 2 hours compound incubation. The gist of the method:
(§1)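 pAKT(S473) in lysates read by HTRF after a 2 h, 37 °C compound exposure (12-point 1:3 series, max 0.5% DMSO). SKBR3 (wild type, top 10 μM) received 70 ng/ml PDGF-BB during the final 15 min; T47D (H1047R, top 5 μM) was unstimulated. IC50 values derived from the dose-response.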

Assay [2] has as its system SKBR3 (PI3Kα-Wild Type) cell line. The assay can be described thus: HTRF phospho-AKT(S473) cell assay in SKBR3 cells. Type of assay: cell-based, human. Conditions: Homo sapiens, SK-BR-3, 2 hours compound incubation, PDGF-BB stimulated. In outline: as §1
A general note: Time-resolved FRET reads energy transfer from a long-lived donor to a nearby acceptor.

[3] abbreviates: HTRF phospho-AKT(S473), T47D (PI3Kα-H1047R) cells.
The mark [4] stands for this setting: HTRF phospho-AKT(S473), SKBR3 (PI3Kα-Wild Type) cells.
[5] abbreviates: T47D (PI3Kα-H1047R) cells, HTRF phospho-AKT(S473).
[6] abbreviates: SKBR3 (PI3Kα-Wild Type) cells, HTRF phospho-AKT(S473).

pIC50: −log10 of the molar value. Where only a bound is given, the exact number is not on record here.

Turning to `[2H]C([2H])([2H])n1cc(F)c(C2CCN(c3nc4c([C@@H](C)Nc5ccc(Cl)nc5C(=O)NS(C)(=O)=O)cc(C)cc4c(=O)n3C)CC2)n1` [Compound 456, (R)-6-chloro-3-((1-(2-(4-(4-fluoro-1-(methyl-d3)-1H-pyrazol-3-yl)piperidin-1-yl)-3,6-dimethyl-4-oxo-3,4-dihydroquinazolin-8-yl)ethyl)amino)-N-(methylsulfonyl) picolinamide], the pIC50 is greater than 6.60 in assay [1] (setting [3]) and no more than 5.30 in assay [2] (setting [4]).

Take `Cc1cc([C@@H](C)Nc2ccc(Cl)nc2C(=O)NS(C)(=O)=O)c2nc(-c3ccc(N4CCN(C)CC4)cc3)n(C)c(=O)c2c1` [Compound 790, (R)-6-chloro-3-((1-(3,6-dimethyl-2-(4-(4-methylpiperazin-1-yl)phenyl)-4-oxo-3,4-dihydroquinazolin-8-yl)ethyl)amino)-N-(methylsulfonyl) picolinamide]: the negative-log IC50 (pIC50) in assay [1] (setting [3]) is greater than 6.60; in assay [2] (setting [4]), no more than 5.30.

In the case of `CCn1c(N2C[C@@H]3[C@H](C2)[C@H]3c2cnc(C)nc2)nc2c([C@@H](C)Nc3ccc(Cl)nc3C(=O)NS(C)(=O)=O)cc(C)cc2c1=O` [Compound 584, 6-chloro-3-(((R)-1-(3-ethyl-6-methyl-2-((1R,5S,6S)-6-(2-methylpyrimidin-5-yl)-3-azabicyclo[3.1.0]hexan-3-yl)-4-oxo-3,4-dihydroquinazolin-8-yl)ethyl)amino)-N-(methylsulfonyl) picolinamide], the negative-log IC50 (pIC50) is greater than 6.60 in assay [1] (setting [3]) and 5.30 to 6.00 in assay [2] (setting [4]).

`Cc1cc([C@@H](C)Nc2ccc(Cl)nc2C(=O)NS(C)(=O)=O)c2nc(N3C[C@@H]4[C@H](C3)[C@H]4c3cn(C)nn3)n(C)c(=O)c2c1` [Compound 387, 6-chloro-3-(((R)-1-(3,6-dimethyl-2-((1R,5S,6R)-6-(1-methyl-1H-1,2,3-triazol-4-yl)-3-azabicyclo[3.1.0]hexan-3-yl)-4-oxo-3,4-dihydroquinazolin-8-yl)ethyl)amino)-N-(methylsulfonyl) picolinamide]: the negative logarithm of the IC50 (pIC50) in assay [1] (setting [5]) is greater than 6.60; in assay [2] (setting [6]), 5.30 to 6.00.

Consider `Cc1cc([C@@H](C)Nc2ccc(Cl)nc2C(=O)NS(C)(=O)=O)c2nc(-c3ccc4nn(C)c(C)c4c3)n(C)c(=O)c2c1` [Compound 842, (R)-6-chloro-3-((1-(2-(2,3-dimethyl-2H-indazol-5-yl)-3,6-dimethyl-4-oxo-3,4-dihydroquinazolin-8-yl)ethyl)amino)-N-(methylsulfonyl) picolinamide], for which the negative logarithm of the IC50 (pIC50) in assay [1] (T47D (PI3Kα-H1047R) cell line, phospho-AKT(S473) HTRF) was greater than 6.60; in assay [2] (SKBR3 (PI3Kα-Wild Type) cell line, phospho-AKT(S473) HTRF), 5.30 to 6.00.

For `Cc1cc([C@@H](C)Nc2ccc(Cl)nc2C(=O)NS(C)(=O)=O)c2nc(N3C[C@@H]4[C@H](C3)[C@H]4c3cnccn3)n(C)c(=O)c2c1` [Compound 439, 6-chloro-3-(((R)-1-(3,6-dimethyl-4-oxo-2-((1R,5S,6R)-6-(pyrazin-2-yl)-3-azabicyclo[3.1.0]hexan-3-yl)-3,4-dihydroquinazolin-8-yl)ethyl)amino)-N-(methylsulfonyl) picolinamide], the pIC50 in assay [1] (setting [5]) is greater than 6.60; in assay [2] (setting [6]) it was 5.30 to 6.00.

In the case of `C[C@@H](Nc1ccc(Cl)nc1C(=O)NS(C)(=O)=O)c1cc(Cl)cc2c(=O)n(C)c(N3C[C@@H]4[C@H](C3)[C@H]4c3ccn(C)n3)nc12` [Compound 451, 6-chloro-3-(((R)-1-(6-chloro-3-methyl-2-((1R,5S,6R)-6-(1-methyl-1H-pyrazol-3-yl)-3-azabicyclo[3.1.0]hexan-3-yl)-4-oxo-3,4-dihydroquinazolin-8-yl)ethyl)amino)-N-(methylsulfonyl) picolinamide], the negative-log IC50 (pIC50) in assay [1] (setting [3]) is greater than 6.60; in assay [2] (setting [4]), 5.30 to 6.00.

On to `C[C@@H](Nc1ccc(Cl)nc1C(=O)NS(C)(=O)=O)c1cc(F)cc2c(=O)n(C)c(N3CCC(c4nn(C)cc4F)CC3)nc12` [Compound 364, (R)-6-chloro-3-((1-(6-fluoro-2-(4-(4-fluoro-1-methyl-1H-pyrazol-3-yl)piperidin-1-yl)-3-methyl-4-oxo-3,4-dihydroquinazolin-8-yl)ethyl)amino)-N-(methylsulfonyl) picolinamide], for which the pIC50 in assay [1] (setting [5]) was 6.30 to 6.60; in assay [2] (setting [6]) it was 5.30 to 6.00.

Consider `Cc1cc([C@@H](C)Nc2ccc(Cl)nc2C(=O)NS(C)(=O)=O)c2nc(N3CCC[C@H](c4cnc(C)cn4)C3)n(C)c(=O)c2c1` (relative stereo) [Compound 585, 6-chloro-3-(((R)-1-(3,6-dimethyl-2-((R*)-3-(5-methylpyrazin-2-yl)piperidin-1-yl)-4-oxo-3,4-dihydroquinazolin-8-yl)ethyl)amino)-N-(methylsulfonyl) picolinamide], for which the figures for the pIC50 in assay [1] (setting [3]) and in assay [2] (setting [4]) were 6.30 to 6.60 and no more than 5.30, respectively.

Turning to `Cc1cc([C@@H](C)Nc2ccc(Cl)nc2C(=O)NS(C)(=O)=O)c2nc(N3CCC(c4c(F)cnn4C)CC3)n(C)c(=O)c2c1` [Compound 412, (R)-6-chloro-3-((1-(2-(4-(4-fluoro-1-methyl-1H-pyrazol-5-yl)piperidin-1-yl)-3,6-dimethyl-4-oxo-3,4-dihydroquinazolin-8-yl)ethyl)amino)-N-(methylsulfonyl) picolinamide], the negative logarithm of the IC50 (pIC50) was greater than 6.60 in assay [1] (setting [5]) and 5.30 to 6.00 in assay [2] (setting [6]).

With `Cc1cc([C@@H](C)Nc2ccc(Cl)nc2C(=O)NS(C)(=O)=O)c2nc(N3CC[C@H](c4ccnc(C)c4)C3)n(C)c(=O)c2c1` (relative stereo) [Compound 769, 6-chloro-3-(((R)-1-(3,6-dimethyl-2-((R*)-3-(2-methylpyridin-4-yl)pyrrolidin-1-yl)-4-oxo-3,4-dihydroquinazolin-8-yl)ethyl)amino)-N-(methylsulfonyl) picolinamide], the negative logarithm of the IC50 (pIC50) is greater than 6.60 in assay [1] (setting [3]) and 5.30 to 6.00 in assay [2] (setting [4]).

In the case of `Cc1cc([C@@H](C)Nc2ccc(Cl)nc2C(=O)NS(C)(=O)=O)c2nc(N3CC[C@H](c4cnc(C)c(C#N)c4)C3)n(C)c(=O)c2c1` (relative stereo) [Compound 656, 6-chloro-3-(((R)-1-(2-((R*)-3-(5-cyano-6-methylpyridin-3-yl)pyrrolidin-1-yl)-3,6-dimethyl-4-oxo-3,4-dihydroquinazolin-8-yl)ethyl)amino)-N-(methylsulfonyl) picolinamide], the pIC50 in assay [1] (setting [3]) was 6.30 to 6.60; in assay [2] (setting [4]), 5.30 to 6.00.

On to `COc1nn(C)cc1[C@H]1[C@@H]2CN(c3nc4c([C@@H](C)Nc5ccc(Cl)nc5C(=O)NS(C)(=O)=O)cc(C)cc4c(=O)n3C)C[C@@H]21` [Compound 440, 6-chloro-3-(((R)-1-(2-((1R,5S,6S)-6-(3-methoxy-1-methyl-1H-pyrazol-4-yl)-3-azabicyclo[3.1.0]hexan-3-yl)-3,6-dimethyl-4-oxo-3,4-dihydroquinazolin-8-yl)ethyl)amino)-N-(methylsulfonyl) picolinamide], for which the negative-log IC50 (pIC50) is greater than 6.60 in assay [1] (setting [3]) and 5.30 to 6.00 in assay [2] (setting [4]).

On to `Cc1cc([C@@H](C)Nc2ccc(Cl)nc2C(=O)NS(C)(=O)=O)c2nc(N3CCN(c4nc(C)ncc4Cl)CC3)n(C)c(=O)c2c1` [Compound 727, (R)-6-chloro-3-((1-(2-(4-(5-chloro-2-methylpyrimidin-4-yl)piperazin-1-yl)-3,6-dimethyl-4-oxo-3,4-dihydroquinazolin-8-yl)ethyl)amino)-N-(methylsulfonyl) picolinamide], for which the negative-log IC50 (pIC50) was 6.30 to 6.60 in assay [1] (setting [3]) and 5.30 to 6.00 in assay [2] (setting [4]).

For `Cc1cc([C@@H](C)Nc2ccc(Cl)nc2C(=O)NS(C)(=O)=O)c2nc(N3Cc4cn(C(F)(F)F)nc4C3)n(C)c(=O)c2c1` [Compound 210, (R)-6-chloro-3-((1-(3,6-dimethyl-4-oxo-2-(2-(trifluoromethyl)-2,6-dihydropyrrolo[3,4-c]pyrazol-5(4H)-yl)-3,4-dihydroquinazolin-8-yl)ethyl)amino)-N-(methylsulfonyl) picolinamide], the pIC50 in assay [1] (setting [5]) is greater than 6.60; in assay [2] (setting [6]) it was 5.30 to 6.00.

Turning to `Cc1cc([C@@H](C)Nc2ccc(Cl)nc2C(=O)NS(C)(=O)=O)c2nc(N3CCC(c4nc(C)co4)CC3)n(C)c(=O)c2c1` [Compound 545, (R)-6-chloro-3-((1-(3,6-dimethyl-2-(4-(4-methyloxazol-2-yl)piperidin-1-yl)-4-oxo-3,4-dihydroquinazolin-8-yl)ethyl)amino)-N-(methylsulfonyl) picolinamide], the pIC50 in assay [1] (setting [3]) was greater than 6.60; in assay [2] (setting [4]), no more than 5.30.

For the molecule `C[C@@H](Nc1ccc(Cl)nc1C(=O)NS(C)(=O)=O)c1cc(C2CC2)cc2c(=O)n(C)c(N3C[C@@H]4[C@H](C3)[C@H]4c3ccn(C)n3)nc12` [Compound 382, 6-chloro-3-(((R)-1-(6-cyclopropyl-3-methyl-2-((1R,5S,6R)-6-(1-methyl-1H-pyrazol-3-yl)-3-azabicyclo[3.1.0]hexan-3-yl)-4-oxo-3,4-dihydroquinazolin-8-yl)ethyl)amino)-N-(methylsulfonyl) picolinamide], the pIC50 in assay [1] (setting [5]) is 6.30 to 6.60; in assay [2] (setting [6]), 5.30 to 6.00.

Regarding `CC(=O)N1CCN(c2ccc(-c3nc4c([C@@H](C)Nc5ccc(Cl)nc5C(=O)NS(C)(=O)=O)cc(C)cc4c(=O)n3C)cc2F)CC1(C)C` [Compound 804, (R)-3-((1-(2-(4-(4-acetyl-3,3-dimethylpiperazin-1-yl)-3-fluorophenyl)-3,6-dimethyl-4-oxo-3,4-dihydroquinazolin-8-yl)ethyl)amino)-6-chloro-N-(methylsulfonyl) picolinamide], the figures for the pIC50 in assay [1] (setting [3]) and in assay [2] (setting [4]) were greater than 6.60 and no more than 5.30, respectively.

By pIC50 is commonly meant the IC50 on a negative log10 scale, so that one unit is a factor of ten.
